Consider one molecule from US8835629B2, “Anti-cancer agents” (The Walter and Eliza Hall Institute of Medical Research, priority 2010, dated 2014).

SMILES strings stand for the structures. Entries after “also recorded” stand apart in the source; their conditions may differ.

One data set deals with LIM 1215. Briefly: MTT cell proliferation assay, LIM 1215. It counts as cell-based. To be noted: LIM1215, 72 h; LIM 1215 human colorectal carcinoma; MTT after 3 days of incubation; read-out: IC50, inhibition of proliferation. As to the method: (§1) Compound 2 was tested on a series of cell lines to determine its activity and selectivity (Table 2). Cell proliferation was measured using the MTT assay (for protocol see Example 2.6) after 3 days of incubation with the inhibitor.
(§2) • Cells plated at […] in 100 μl medium+5% FCS (+Adds^1): • Cells incubated overnight: • Titrate inhibitors in a fresh plate in 150 μl medium • Transfer 100 μl titrated compounds to matching wells of the cell plate. • Incubate a further 4 days: • Add 10 μl MTS^2 or MTT^3 for 1.5 to 2 hours and read on Multiscanner (wavelengths 492/690) ^1 Additives for culture of LIM cell lines: 10 μM thioglycerol, 0.025 U/ml insulin, 1 μg/ml hydrocortisone. ^2 3-(4,5-dimethylthiazol-2-yl)-5-(3-carboxymethoxyphenyl)-2-(4-sulfophenyl)-2H-tetrazolium. ^3 3-(4,5-Dimethylthiazol-2-yl)-2,5-diphenyltetrazolium bromide
(§3) Cells are trypsinized and washed ×2 in medium+5% FCS and plate out at 10^4 cells per well in 100 μl.
(§4) Incubate plates o/n 37° C.+5%-10% CO2 incubator.
(§5) Inhibitors are dissolved in DMSO to make 10 mM stocks and titrated in a 96 well plate in duplicate to use as the stock for the test plate. […]
(§6) Read OD of plates on Thermo Multiskan Ex, at 560/690 nm.
Background: Formazan colour is commonly taken as a measure of viable cells.

Another data set deals with SW480. Briefly: Antimitotic effects (G2/M cell cycle block, DNA staining, ModFit) on SW480. It counts as cell-based, human. The text has this:
(§7) For the initial studies two colon carcinoma cell lines (LIM1215 and SW480) and two breast cancer cell lines (MDA-MB-231 and MCF-7) were used. Taxol was used as comparator in these experiments (Table 1).

A further data set deals with SW 480. Briefly: MTT cell proliferation assay, SW 480. Conditions: SW480, 72 h; SW 480 human colorectal carcinoma; MTT after 3 days of incubation; read-out: IC50, inhibition of proliferation. Format: cell-based. As to the method:
as §1, §2, §3, §4, §5, §6

Data set [1] has as its system LIM 2537 (colon carcinoma cell line) tumors. Briefly: Tumor xenograft study with LIM 2537 cells. Format: in vivo, BALB/c nude mice. Conditions: 15 mg/kg SC. The protocol: FIG. 7: LIM2537 tumor growth in nude mice. Tumor diameters were measured with external calipers every three days and tumor volume calculated with the formula: π/6×(L×W^2).
The mice were inoculated with 3×10^6 cells per tumor in 100 μl PBS, one tumor on each flank subcutaneously (SC). Treatments were started on the third day after inoculation with either vehicle control (VC) or 100 μl of drug at 3 mg/ml in aqueous solution giving a dose of 15 mg/kg. Mice were injected SC in the abdomen, three times per week for the duration of the experiment. The mice were monitored for body weight, tumor volume and appearance, and for any adverse reactions to the drug. The experiment was terminated after 33 days and the control group euthanized, as the tumor burden in that group had reached the maximum allowed. The remaining mice were then left without treatment for a further 9 days to monitor resumption of tumor growth.

The next data set relates to LIM 2537. Briefly: MTT cell proliferation assay, LIM 2537. Format: cell-based. Conditions: 72 h; LIM 2537 human colorectal carcinoma; MTT after 3 days of incubation; read-out: IC50, inhibition of proliferation. The protocol: as §1, §2, §3, §4, §5, §6
Another data set relates to MDA-MB-231. Briefly: Antimitotic effects (G2/M cell cycle block, DNA staining, ModFit) on MDA-MB-231. Format: cell-based, human.
Source text: as §7

The test system of another data set is BaF/3 cells. The data set is described as follows: Anti-mitotic effects of metabolites recovered from mouse plasma (G2/M, FACS). Format: cell-based, murine. Conditions: BaF3, 24 hr, FACS with Propidium Iodide, concentration of recovered peaks difficult to quantify, read-out: IC50 (G2/M block) of peaks recovered from mouse plasma. As to the method:
FIG. 5: Anti-mitotic effects of metabolites recovered from mouse plasma after compound 2 injection. BaF/3 cells were incubated for 24 hr with increasing amounts of each reconstituted peak. Cell cycle distribution was assessed by FACS analysis using Propidium Iodide. The percentage of cells in the G2/M phase of the cell cycle was determined using ModFi
The mouse plasma was fractionated on RP-HPLC and the peaks indicated above were collected. The pooled peak samples were concentrated by lyophilization. A portion of each peak sample was reconstituted in culture media for bioassay (FIG. 5). The remainder was analyzed by LC-MS to confirm the mass and identify the structures.

In another data set the test system is LIM 2405. The data set is described as follows: MTT cell proliferation assay, LIM 2405. Format: cell-based. To be noted: 72 h; LIM 2405 human colorectal carcinoma; MTT after 3 days of incubation; read-out: IC50, inhibition of proliferation. The protocol:
as §1, §2, §3, §4, §5, §6

The nature of data set [2]: Dose escalation in mice (tolerability and toxicity). Format: in vivo. The protocol:
Compound 1 was initially tested for tolerability and toxicity in mice. C57Bl/6 mice (aged 8-12 weeks) were injected subcutaneously with escalating doses of Compound 1 in a constant volume of DMSO. Mice were sacrificed 24 hrs post-injection. There were no adverse effects of doses up to 80 mg/kg within this time-frame. Thus the compound is well tolerated at doses that far exceed the IC50 observed “in vitro”.
These minor skin lesions healed readily within 2-3 days.

[3] abbreviates: Homo sapiens, inhibitors added to cells in log-growth for 24 hrs, read-out: IC50 for progression through the cell cycle.

Regarding `COc1ccc(CNc2nc(NCc3ccc(CN)cc3)nc(NN3CC(=O)NC3=O)n2)cc1` (single isomer, unassigned) [Compound 2, 1-[4-(4-aminomethyl-benzylamino)-6-(4-methoxybenzylamino)-{1,3,5}-triazin-2-yl-amino]-imidazolidine-2,4-dione], the IC50 with LIM 1215 worked out at 90 nM; in the data set on SW480 (setting [3]) it was 250 nM; with SW 480 it was 30 nM; in the data set with LIM 2537 it was 70 nM; in the data set with MDA-MB-231 (setting [3]) it was 9 nM; in the data set on BaF/3 cells, 100 nM. Further, the IC50 with LIM 2405 was found to be 30 nM. Further, the “% of Taxol (proportion of cells in G2M test/proportion of cells in G2M Taxol)” value in the data set on SW480 (24 hrs, standard 1 μM Taxol) was found to be 113%; in the data set on MDA-MB-231 (24 hrs, standard 1 μM Taxol), 103%. Also, the “Tumor growth (tumor volume)” value in [1] (3 injections per week from day 3, 33 days) is “significantly reduced the rate of growth of the tumors; also recorded: successful in slowing the growth of LIM 2537 cells”. Besides, in data set [1] (three times per week), the Mouse body weights result was “not affected”. Besides, the “Adverse reaction to the drug” value in [1] (three times per week, aqueous formulation) was “no long term adverse reaction”. In addition, in data set [2] (BALB/c nude, mouse, in vivo, 20 mg/kg), the “Time for healing of minor skin lesions” value lay in the range of 2 to 3 days. Besides, the “Effect at injection site” value in data set [2] (at 21.5 and 64.5 mg/kg) was “indications of skin thinning at the injection site in some mice”. Further, the “Doses with no adverse effects in outward health or behaviour” value in data set [2] (mice, for 4 days) is given as “up to 64.5 mg/kg”. Moreover, the “Skin effect in BALB/c nude mice” value in data set [2] (mouse, in vivo, 20 mg/kg) is given as “some skin lesions”.
